From patent US6608086B2, “Dihydropyridines and new uses thereof” (Synaptic Pharmaceutical Corporation, priority 1993, dated 2003)
Where two headings read alike, the source gives them in different places.

Columns and labels:
[1] = biological target: T1, α1A Human Adrenergic Receptor (Homo sapiens, UniProt P25100); assay: Radioligand binding, [3H]prazosin, cloned human α1A adrenergic receptor
T1 construct: The entire coding region of α1A (1719 bp); expressed in transfected cells
T1 sequence (P25100 1-572): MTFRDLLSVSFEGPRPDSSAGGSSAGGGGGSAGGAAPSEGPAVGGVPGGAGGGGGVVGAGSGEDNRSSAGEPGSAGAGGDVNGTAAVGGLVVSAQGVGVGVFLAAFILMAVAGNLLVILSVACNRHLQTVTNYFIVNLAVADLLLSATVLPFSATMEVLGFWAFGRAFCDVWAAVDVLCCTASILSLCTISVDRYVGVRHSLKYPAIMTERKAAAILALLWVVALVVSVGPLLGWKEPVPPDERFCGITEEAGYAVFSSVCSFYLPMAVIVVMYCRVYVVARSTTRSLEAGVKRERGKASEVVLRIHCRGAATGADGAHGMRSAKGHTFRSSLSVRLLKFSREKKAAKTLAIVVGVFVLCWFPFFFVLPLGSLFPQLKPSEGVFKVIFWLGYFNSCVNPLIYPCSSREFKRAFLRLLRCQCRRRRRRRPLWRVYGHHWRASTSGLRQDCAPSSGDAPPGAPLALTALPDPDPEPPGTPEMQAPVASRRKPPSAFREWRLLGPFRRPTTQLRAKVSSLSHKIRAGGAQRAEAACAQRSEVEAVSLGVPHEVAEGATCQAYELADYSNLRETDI
Summary of the method: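 Competition binding used membrane preparations of transfected LM(tk−) cells and the α1 antagonist [3H]prazosin at 0.5 nM, incubated 20 min at 37° C in Tris-HCl buffer, pH 7.5.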

[2] = biological target: T2, α1B Human Adrenergic Receptor (Homo sapiens, UniProt P35368); assay: Radioligand binding, [3H]prazosin, cloned human α1B adrenergic receptor
T2 construct: The entire coding region of α1B (1563 bp); expressed in transfected cells
T2 sequence (P35368 1-520): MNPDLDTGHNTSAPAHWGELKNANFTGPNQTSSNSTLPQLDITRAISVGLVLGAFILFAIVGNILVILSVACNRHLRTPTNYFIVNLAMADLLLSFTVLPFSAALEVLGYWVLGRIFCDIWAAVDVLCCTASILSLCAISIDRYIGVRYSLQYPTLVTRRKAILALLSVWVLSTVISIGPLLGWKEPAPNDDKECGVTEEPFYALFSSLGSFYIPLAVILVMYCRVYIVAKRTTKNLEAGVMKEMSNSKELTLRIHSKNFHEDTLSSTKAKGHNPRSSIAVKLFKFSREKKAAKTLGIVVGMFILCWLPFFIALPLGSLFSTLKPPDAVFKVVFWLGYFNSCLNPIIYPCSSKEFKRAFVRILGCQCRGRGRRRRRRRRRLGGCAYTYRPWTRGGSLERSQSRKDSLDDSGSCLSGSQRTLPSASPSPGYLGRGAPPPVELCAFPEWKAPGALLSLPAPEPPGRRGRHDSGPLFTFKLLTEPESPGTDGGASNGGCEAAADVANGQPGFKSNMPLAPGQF
Summary of the method: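 Membranes from stably transfected LM(tk−) cells, resuspended in 50 mM Tris-HCl, 1 mM MgCl2, 0.1% ascorbic acid, pH 7.5, were incubated with 0.5 nM [3H]prazosin for 20 min at 37° C. Nonspecific binding defined with 10 μM phentolamine; bound ligand separated by GF/B filtration.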

[3] = biological target: T3, α1C Human Adrenergic Receptor (Homo sapiens, UniProt P35348); assay: Radioligand binding, [3H]prazosin, cloned human α1C adrenergic receptor
T3 construct: The entire coding region of α1C (1401 bp); expressed in transfected cells
T3 sequence (P35348 1-466): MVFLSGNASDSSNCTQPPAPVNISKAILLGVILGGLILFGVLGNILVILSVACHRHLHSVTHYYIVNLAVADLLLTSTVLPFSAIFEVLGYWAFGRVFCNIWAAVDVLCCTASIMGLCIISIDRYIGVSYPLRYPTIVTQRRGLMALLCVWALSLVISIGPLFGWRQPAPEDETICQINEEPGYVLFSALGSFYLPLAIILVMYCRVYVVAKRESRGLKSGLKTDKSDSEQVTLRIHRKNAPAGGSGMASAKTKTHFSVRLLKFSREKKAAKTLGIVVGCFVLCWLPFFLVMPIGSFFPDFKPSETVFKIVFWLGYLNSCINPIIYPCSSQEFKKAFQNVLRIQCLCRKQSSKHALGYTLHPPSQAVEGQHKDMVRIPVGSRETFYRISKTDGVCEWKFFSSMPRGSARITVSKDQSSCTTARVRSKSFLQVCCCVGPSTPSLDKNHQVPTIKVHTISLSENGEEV
Summary of the method: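 Read-out is filter-retained [3H]prazosin (0.5 nM) bound to membranes of LM(tk−) cells stably carrying the human α1C receptor. Incubation ran 20 min at 37° C. at pH 7.5, with 10 μM phentolamine marking nonspecific binding.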

L-type calcium channel = biological target: T4, L-type calcium channel (Rattus norvegicus, UniProt P22002); assay: Competition binding of [3H]nitrendipine to membrane fragments of rat cardiac muscle
T4 construct: membrane fragments of rat cardiac muscle; from tissue; host or cells: rat cardiac muscle membranes
Procedure: The protocols for these experiments are given below.
Determination of the Activity of al Antagonists at Calcium Channels
Briefly, the tissue was minced and homogenized in 50 mM Tris-HCl (pH 7.4) containing 0.1 mM phenylmethylsulfonyl fluoride. The homogenates were centrifuged at 1000 g for 15 minutes, the resulting supernatant was centrifuged at 45,000 g for 15 minutes. The 45,000 g pellet was suspended in buffer and centrifuged a second time. Aliquots of membrane protein were incubated for 30 minutes at 37° C. in the presence of [3H]nitrendipine (1 nM), and nonspecific binding was determined in the presence of 10 μM nifedipine. The bound radioligand was separated by filtration through GF/B filters using a cell harvester.

[4] = PKi alpha-1 1a, [3H]prazosin, cloned human receptor, LM(tk-) cell membranes, mean
[5] = PKi alpha-1 1b, cloned human receptor, LM(tk-) cell membranes, mean
[6] = PKi alpha-1 1c, cloned human receptor, LM(tk-) cell membranes, mean
[7] = [3H]nitrendipine, rat cardiac muscle membranes, mean, read-out: PKi Ca (converted)
[8] = [3H]prazosin, cloned human receptor, LM(tk-) cell membranes, mean, read-out: PKi alpha-1 1a (converted)
[9] = cloned human receptor, LM(tk-) cell membranes, mean, read-out: PKi alpha-1 1b (converted)
[10] = cloned human receptor, LM(tk-) cell membranes, mean, read-out: PKi alpha-1 1c (converted)

T4 sequence (P22002 whole entry, other chains not shown, the tested form may be a part): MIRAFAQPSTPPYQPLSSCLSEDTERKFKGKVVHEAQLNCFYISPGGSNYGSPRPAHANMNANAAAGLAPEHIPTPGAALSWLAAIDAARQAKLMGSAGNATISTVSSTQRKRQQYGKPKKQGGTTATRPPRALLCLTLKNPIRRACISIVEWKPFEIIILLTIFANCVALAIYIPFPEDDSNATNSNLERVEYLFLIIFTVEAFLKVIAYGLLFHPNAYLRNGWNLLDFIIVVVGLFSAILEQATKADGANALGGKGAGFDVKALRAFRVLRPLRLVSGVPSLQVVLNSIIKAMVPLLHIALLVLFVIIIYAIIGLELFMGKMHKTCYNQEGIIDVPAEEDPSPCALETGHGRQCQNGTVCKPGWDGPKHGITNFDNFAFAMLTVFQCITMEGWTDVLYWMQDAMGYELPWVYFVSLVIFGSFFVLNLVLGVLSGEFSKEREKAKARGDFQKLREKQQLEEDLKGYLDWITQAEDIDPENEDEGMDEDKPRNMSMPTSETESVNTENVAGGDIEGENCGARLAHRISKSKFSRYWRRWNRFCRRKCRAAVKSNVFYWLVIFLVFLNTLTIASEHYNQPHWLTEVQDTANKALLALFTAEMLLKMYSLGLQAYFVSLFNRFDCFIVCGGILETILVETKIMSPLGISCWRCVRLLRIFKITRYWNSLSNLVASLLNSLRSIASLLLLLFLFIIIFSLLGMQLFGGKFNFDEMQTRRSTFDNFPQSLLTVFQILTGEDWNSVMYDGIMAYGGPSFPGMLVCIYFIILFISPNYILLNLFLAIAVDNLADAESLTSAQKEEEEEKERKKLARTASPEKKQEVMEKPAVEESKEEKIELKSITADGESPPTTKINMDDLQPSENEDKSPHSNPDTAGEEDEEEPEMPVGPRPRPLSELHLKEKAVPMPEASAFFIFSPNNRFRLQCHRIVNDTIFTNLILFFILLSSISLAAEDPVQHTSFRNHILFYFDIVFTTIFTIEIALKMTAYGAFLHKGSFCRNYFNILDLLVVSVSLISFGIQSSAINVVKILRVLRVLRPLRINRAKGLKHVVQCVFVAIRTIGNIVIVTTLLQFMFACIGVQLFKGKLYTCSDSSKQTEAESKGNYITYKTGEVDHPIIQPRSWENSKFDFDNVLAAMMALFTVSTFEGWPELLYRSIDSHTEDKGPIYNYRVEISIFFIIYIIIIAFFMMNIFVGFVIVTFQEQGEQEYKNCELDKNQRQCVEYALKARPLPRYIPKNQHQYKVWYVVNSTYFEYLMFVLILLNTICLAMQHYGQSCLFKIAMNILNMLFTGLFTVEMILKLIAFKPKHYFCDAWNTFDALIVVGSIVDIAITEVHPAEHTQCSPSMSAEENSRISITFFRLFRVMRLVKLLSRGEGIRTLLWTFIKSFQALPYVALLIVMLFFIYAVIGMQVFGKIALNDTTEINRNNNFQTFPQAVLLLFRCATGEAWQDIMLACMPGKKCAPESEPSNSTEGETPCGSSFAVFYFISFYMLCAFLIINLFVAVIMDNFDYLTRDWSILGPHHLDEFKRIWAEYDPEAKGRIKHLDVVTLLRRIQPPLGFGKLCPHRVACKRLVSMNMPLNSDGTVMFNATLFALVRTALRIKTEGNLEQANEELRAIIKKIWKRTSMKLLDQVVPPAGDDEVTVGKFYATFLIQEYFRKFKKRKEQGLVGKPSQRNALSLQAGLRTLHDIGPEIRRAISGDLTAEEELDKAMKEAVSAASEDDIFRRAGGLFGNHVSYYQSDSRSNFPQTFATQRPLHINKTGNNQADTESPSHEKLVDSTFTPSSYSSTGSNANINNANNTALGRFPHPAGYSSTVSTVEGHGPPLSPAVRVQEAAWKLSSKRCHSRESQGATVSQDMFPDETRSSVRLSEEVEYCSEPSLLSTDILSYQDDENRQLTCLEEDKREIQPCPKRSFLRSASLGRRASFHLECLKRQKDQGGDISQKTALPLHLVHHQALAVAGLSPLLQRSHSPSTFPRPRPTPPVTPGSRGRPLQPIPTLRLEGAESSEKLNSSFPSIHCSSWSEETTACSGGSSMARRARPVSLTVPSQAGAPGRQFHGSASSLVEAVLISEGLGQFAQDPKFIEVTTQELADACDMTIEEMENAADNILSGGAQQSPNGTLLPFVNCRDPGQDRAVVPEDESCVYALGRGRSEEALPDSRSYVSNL
T4 sequence (P54290 25-944 partner limits assumed, other chains not shown): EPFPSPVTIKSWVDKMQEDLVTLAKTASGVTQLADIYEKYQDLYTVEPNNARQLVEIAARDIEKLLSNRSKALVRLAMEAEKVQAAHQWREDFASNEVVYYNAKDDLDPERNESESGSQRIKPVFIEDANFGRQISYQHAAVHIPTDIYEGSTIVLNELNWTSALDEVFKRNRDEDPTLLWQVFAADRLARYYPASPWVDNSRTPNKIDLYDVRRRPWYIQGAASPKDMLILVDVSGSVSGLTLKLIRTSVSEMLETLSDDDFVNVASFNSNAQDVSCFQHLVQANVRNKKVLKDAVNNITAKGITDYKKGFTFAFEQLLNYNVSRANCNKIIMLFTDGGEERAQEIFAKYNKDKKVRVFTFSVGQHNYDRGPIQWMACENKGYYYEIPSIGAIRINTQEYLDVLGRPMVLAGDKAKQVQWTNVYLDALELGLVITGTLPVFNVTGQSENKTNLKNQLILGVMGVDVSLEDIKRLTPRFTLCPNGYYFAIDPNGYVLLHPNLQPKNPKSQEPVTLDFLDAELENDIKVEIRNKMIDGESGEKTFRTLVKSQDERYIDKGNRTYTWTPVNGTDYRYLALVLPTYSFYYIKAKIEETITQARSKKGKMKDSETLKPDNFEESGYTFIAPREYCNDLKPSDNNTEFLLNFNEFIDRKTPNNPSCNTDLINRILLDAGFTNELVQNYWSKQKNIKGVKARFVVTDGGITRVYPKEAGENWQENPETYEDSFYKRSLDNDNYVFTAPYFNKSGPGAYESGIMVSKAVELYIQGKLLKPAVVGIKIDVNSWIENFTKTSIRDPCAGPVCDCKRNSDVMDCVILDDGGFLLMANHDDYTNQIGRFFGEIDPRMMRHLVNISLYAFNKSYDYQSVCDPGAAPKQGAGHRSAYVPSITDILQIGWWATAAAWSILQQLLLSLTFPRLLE
T4 sequence (P54290 945-1091 partner limits assumed, other chains not shown): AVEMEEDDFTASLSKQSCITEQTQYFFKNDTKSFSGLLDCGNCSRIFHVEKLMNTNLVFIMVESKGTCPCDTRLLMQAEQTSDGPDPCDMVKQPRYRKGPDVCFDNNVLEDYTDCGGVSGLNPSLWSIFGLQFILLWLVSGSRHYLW

Row | Structure (SMILES) | melting point | Ki [1, 4] [µM] | Ki [2, 5] [µM] | Ki [3, 6] [µM] | Ki (L-type calcium channel; [7]) [µM] | Ki [1, 8] [µM] | Ki [2, 9] [µM] | Ki [3, 10] [µM] | other results
1 | COC(=O)C1=C(C)NC(C)=C(C(=O)NCCCN2CCC(c3ccccc3)CC2)C1c1ccncc1 (stereo not drawn) [Example 32, 1,4-Dihydro-3-methoxycarbonyl-2,6-dimethyl-5-(N-(3-(4-phenylpiperidin-1-yl)propyl)carboxamido)-4-(4-pyridyl)pyridine] | 79 to 80 °C | – | – | – | – | – | – | – | Ki ([1]; [3H]prazosin, cloned human receptor in LM(tk-) cell membranes, SEM and n in lines below, read-out: pKi alpha-1 1a (converted)): 0.741 µM; Ki ([2]; cloned human receptor in LM(tk-) cell membranes, SEM and n in lines below, read-out: pKi alpha-1 1b (converted)): 0.302 µM; Ki ([3]; cloned human receptor in LM(tk-) cell membranes, SEM and n in lines below, read-out: pKi alpha-1 1c (converted)): 0.0132 µM; Ki (L-type calcium channel; [3H]nitrendipine, rat cardiac muscle membranes, SEM and n in lines below, read-out: pKi Ca (converted)): 1.58 µM
2 | CCCC1=C(C(=O)O)C(c2ccc([N+](=O)[O-])cc2)C(C(=O)NCCCN2CCC(c3ccccc3)(c3ccccc3)CC2)=C(CCC)N1 (stereo not drawn) [Example 161, 1,4-Dihydro-4-(4-nitrophenyl)-5-{N-[3-(4,4-diphenylpiperidin-1-yl)propyl]}carboxamido-2,6-dipropylpyridine-3-carboxylic acid] | 126 to 130 °C | – | – | – | – | – | – | – | Ki ([1]; pKi alpha-1 1a, [3H]prazosin, cloned human α1A receptor, LM(tk−) cell membranes): 1.32 µM; Ki ([2]; pKi alpha-1 1b, cloned human α1B receptor, LM(tk−) cell membranes): 0.407 µM; Ki ([3]; pKi alpha-1 1c, cloned human α1C receptor, LM(tk−) cell membranes): 0.0389 µM; Ki (L-type calcium channel; [3H]nitrendipine, rat cardiac muscle membrane fragments, L-type calcium channel, read-out: pKi Ca (converted)): 1000 µM
3 | CCC1=C(C(=O)O)C(c2ccc([N+](=O)[O-])cc2)C(C(=O)NCCCN2CCC(c3ccccc3)(c3ccccc3)CC2)=C(COCCN)N1 (stereo not drawn) [Example 219, 2-((2-Aminoethyl)oxy)methyl-6-ethyl-1,4-dihydro-4-(4-nitro)phenyl-3-(N-(3-(4,4-diphenylpiperidin-1-yl)propyl))carboxamidopyridine-5-carboxylic Acid] | 180 °C (dec.) | 2.69 | 1.23 | 0.0302 | 575 | – | – | – | –
4 | CNC(=O)C1=C(C)NC(C)=C(C(=O)NCCCN2CCC(C(=O)OC)(c3ccccc3)CC2)C1c1ccc([N+](=O)[O-])cc1 (stereo not drawn) [Example 187, 1,4-Dihydro-2,6-dimethyl-3-{N-[3-(4-methoxycarbonyl-4-phenylpiperidin-1-yl)propyl]}carboxamido-5-(N-methyl) carboxamido-4-(4nitrophenyl)pyridine] | 122 to 123 °C | – | – | – | – | – | – | – | Ki (L-type calcium channel; PKi Ca, [3H]nitrendipine, rat cardiac muscle membranes, mean): 513 µM
5 | CCC1=C(C(=O)O)C(c2ccc([N+](=O)[O-])cc2)C(C(=O)NCCCN2CCC(C(=O)OC)(c3ccccc3)CC2)=C(COCCN=[N+]=[N-])N1 (stereo not drawn) [Example 227, 2-((2-Azidoethyl)oxy)methyl-6-ethyl-1,4-dihydro-3-(N-(3-(4-methoxycarbonyl-4-phenylpiperidin-1-yl)propyl))carbo xamido-4-(4-nitro)phenylpyridine-5-carboxylic Acid] | 110 to 120 °C | – | – | – | 70.8 | 5.13 | 2.63 | 0.0234 | –
6 | CCC1=C(C(=O)OCCC#N)C(c2ccc([N+](=O)[O-])cc2)C(C(=O)NCCCN2CCC(c3ccccc3)CC2)=C(COC)N1 (stereo not drawn) [Example 221, 5-(2-Cyanoethoxy) carbonyl-6-ethyl-1,4-dihydro-2-methyloxymethyl-4-(4-nitro)phenyl-3-(N-(3-(4-phenylpiperidin-1-yl)propyl))carboxamidopyridine] | 55 to 63 °C | – | – | – | 14.1 | 0.186 | 0.0525 | 0.00617 | –
7 | CCC1=C(C(=O)OC)C(c2ccc([N+](=O)[O-])cc2)C(C(=O)NCCCN2CCC(C(=O)OC)(c3ccccc3)CC2)=C(COCCN=[N+]=[N-])N1 (stereo not drawn) [Example 232, 2-((2-Azidoethyl)oxy)methyl-6-ethyl-5-methoxycarbonyl-3-(N-(3 (4-methoxycarbonyl-4-phenylpiperidin-1-yl)propyl))carbo xamido-1,4-dihydro-4-(4-nitro)phenylpyridine] | 50 to 60 °C | – | – | – | – | – | 0.219 | 0.00759 | Ki ([1]; PKi alpha-1 1a): 0.417 µM; Ki (L-type calcium channel; PKi Ca): 0.692 µM
8 | COc1ccc(C2(c3ccccc3)CCN(CCCNC(=O)C3=C(COCCN=[N+]=[N-])NC(C)=C(C(N)=O)C3c3ccc([N+](=O)[O-])cc3)CC2)cc1 (stereo not drawn) [Example 184, 2-[(2-Azidoethoxy)methyl]-5-carboxamido-1,4-dihydro-3-{N-[3-(4-(4-methoxyphenyl)-4-phenylpiperidin-1-yl)propyl]}carboxamido-6-methyl-4-(4-nitrophenyl)pyridine] | 105 to 107 °C | 0.741 | 0.174 | 0.00955 | 12.3 | – | – | – | –
9 | CCC1=C(C(=O)O)C(c2ccc([N+](=O)[O-])cc2)C(C(=O)NCCCN2CCC(c3ccccc3)CC2)=C(COC)N1 (stereo not drawn) [Example 223, 6-Ethyl-1,4-dihydro-2-methyloxymethyl-4-(4-nitro)phenyl-3-(N-(3-(4-phenylpiperidin-1-yl)propyl))carboxamidopyridine-5-carboxylic Acid] | – | – | – | – | 275 | 0.891 | 0.174 | 0.0347 | –
10 | CCC1=C(C(=O)NC)C(c2ccc([N+](=O)[O-])cc2)C(C(=O)NCCCN2CCC(c3ccccc3)(c3ccccc3)CC2)=C(COCCN=[N+]=[N-])N1 (stereo not drawn) [Example 224, 2-((2-Azidoethyl)oxy)methyl-6-ethyl-1,4-dihydro-5-N-methylcarboxamido-4-(4-nitro)phenyl-3-(N-(3-(4,4-diphenylpiperidin-1-yl)propyl))carboxamidopyridine] | – | 0.661 | 0.263 | 0.00692 | 15.1 | – | – | – | –
